# Test results from article PMC12040169 (PLOS Biology, 2025).
# Assay: in vitro
# Settings: human, hela cells, % viability
row,Compound,"viability at 28.5 h, 10 µM"
1,Cc1cc(O)ccc1-c1cncc(-c2ccc(O)cc2C)n1 [CBK115689],90.5%
2,O=C(NCCN1CCOCC1)c1ccc(Nc2cncc(-c3ccc(O)cc3)n2)cc1 [CBK115692],77.1%
3,CCOC(=O)N1CCC(NC(=O)c2ccc(Nc3cncc(-c4ccc(O)cc4)n3)cc2)CC1 [CBK115694],107%
4,CCCc1n[nH]c(C2CC2)c1C(=O)OCC [CBK115714],115%
5,CCCc1n[nH]c(C2CCCC2)c1C(=O)OCC [CBK115727],85.1%
6,CC(C)Nc1nc2ccccc2nc1OCCC#N [CBK115735],103%
7,Cc1ncsc1CCOc1nc2ccccc2nc1NC(C)C [CBK115736],102%
8,COCCCOc1nc2ccccc2nc1NC(C)C [CBK115737],99.3%
9,CC(C)Nc1nc2cc(Cl)c(Cl)cc2nc1OCc1cccnc1 [CBK115743],97.4%
10,Cc1ncsc1CCOc1nccnc1N1CCCC1 [CBK115752],86.5%
11,Oc1cccc(OCCOc2nccnc2N2CCCC2)c1 [CBK115756],85.5%
12,COCCCOc1cncc(N2CCCC2)n1 [CBK115759],92.4%
13,c1cncc(COc2nc3ccccc3nc2N2CCCC2)c1 [CBK115762],93.4%
14,N#CCCOc1nc2ccccc2nc1N1CCCC1 [CBK115763],96.2%
15,Cc1cc(COc2nc3ccccc3nc2N2CCCC2)no1 [CBK115768],109%
16,c1ccc2nc(N3CCCC3)c(OC3CCOC3)nc2c1 (stereo not drawn) [CBK115769],99.4%
17,CSCCOc1nc2ccccc2nc1N1CCCC1 [CBK115770],91.3%
18,COCCCOc1nc2cc(Cl)c(Cl)cc2nc1N1CCCC1 [CBK115773],95.9%
19,Oc1cccc(OCCOc2nc3cc(Cl)c(Cl)cc3nc2N2CCCC2)c1 [CBK115778],100%
20,Cc1ncsc1CCOc1ncccc1C(F)(F)F [CBK115781],92.2%
21,Cc1cc(COc2ncccc2C(F)(F)F)no1 [CBK115783],101%
22,FC(F)(F)c1ccnc(OCc2cccnc2)c1 [CBK115784],99.6%
23,Cc1cc(COc2cc(C(F)(F)F)ccn2)no1 [CBK115787],134%
24,Oc1cccc(OCCOc2cc(C(F)(F)F)ccn2)c1 [CBK115788],84.8%

row,Compound,"viability at 28.5 h, 10 µM"
1,FC(F)(F)c1ccc(OCCCc2ccncc2)nc1 [CBK115791],101%
2,Cc1cc(COc2ccc(C(F)(F)F)cn2)no1 [CBK115792],91.7%
3,Cc1ncsc1CCOc1cccc(C(F)(F)F)n1 [CBK115794],117%
4,Cc1ncsc1CCOc1nccc(C(F)(F)F)n1 [CBK115798],80.3%
5,FC(F)(F)c1ccnc(OCCCc2ccncc2)n1 [CBK115799],97.5%
6,COCCCOc1nc2ccccc2nc1C(F)(F)F [CBK115803],101%
7,FC(F)(F)c1cccnc1OCCNc1ccccc1 [CBK115822],98.7%
8,FC(F)(F)c1ccc(OCc2ccc(-c3ccccc3)cc2)nc1 [CBK115830],94.6%
9,FC(F)(F)c1ccc(OCc2ccc(Cl)c(Cl)c2)nc1 [CBK115831],90.2%
10,O=C1NC2(CCN(C(=O)Cc3ccc(F)cc3)CC2)Oc2ccc(-c3ccccc3)cc21 [CBK115832],93.5%
11,FC(F)(F)c1cccc(OCCOc2ccccc2)n1 [CBK115835],87.7%
12,FC(F)(F)c1ccnc(OCCOc2ccc(Cl)cc2)n1 [CBK115838],90.8%
13,FC(F)(F)c1ccnc(OCCNc2ccccc2)n1 [CBK115839],90.8%
14,FC(F)(F)c1nc2ccccc2nc1OCCc1c[nH]c2ccccc12 [CBK115843],93.2%
15,O=C1NC2(CCN(C(=O)Cc3c(F)ccc(F)c3F)CC2)Oc2ccc(-c3ccoc3)cc21 [CBK115848],83.2%
16,COc1cccc(NC(=O)N2CCC3(CC2)NC(=O)c2cc(-c4ccoc4)ccc2O3)c1 [CBK115855],102%
17,COc1ccc2[nH]cc(CCNC(=O)c3ccc(Cl)c(Cl)c3)c2c1 [CBK115870],107%
18,Cc1cc(NC(=O)C2COc3ccccc3O2)c2ccccc2n1 (stereo not drawn) [CBK115871],91.6%
19,CC(C)Nc1nccnc1OCCOc1cccc(O)c1 [CBK115878],101%
20,CC(C)Nc1cncc(OCc2cccnc2)n1 [CBK115879],102%
21,COCCCOc1cncc(NC(C)C)n1 [CBK115880],89%
22,CC(C)Nc1cncc(OCCCc2ccncc2)n1 [CBK115881],90.6%
23,CC(C)Nc1cncc(OC2CCOC2)n1 (stereo not drawn) [CBK115882],102%
24,CC(C)Nc1cc(OCCCc2ccncc2)ncn1 [CBK115886],104%

row,Compound,"viability at 28.5 h, 10 µM"
1,Cc1cc(COc2cc(NC(C)C)ncn2)no1 [CBK115887],92.7%
2,CSCCOc1cc(NC(C)C)ncn1 [CBK115889],86.9%
3,c1cncc(COc2nccnc2N2CCCC2)c1 [CBK115890],101%
4,c1cncc(COc2cncc(N3CCCC3)n2)c1 [CBK115892],88.4%
5,c1cncc(COc2cc(N3CCCC3)ncn2)c1 [CBK115894],96.9%
6,Cc1ncsc1CCOc1cc(N2CCCC2)ncn1 [CBK115895],85.5%
7,c1cc(CCCOc2cc(N3CCCC3)ncn2)ccn1 [CBK115897],84.4%
8,Cc1cc(COc2cc(N3CCCC3)ncn2)no1 [CBK115898],93.1%
9,c1nc(OC2CCOC2)cc(N2CCCC2)n1 (stereo not drawn) [CBK115899],88.4%
10,FC(F)(F)c1ccnc(OCc2cccnc2)n1 [CBK115902],102%
11,O=C(NCC1CCCN1)c1ccccc1Nc1cccc(C(F)(F)F)c1 (stereo not drawn) [CBK115916C],107%
12,CN(C)CCN(C)C(=O)c1cc(-c2ccc(Cl)cc2)[nH]n1 [CBK115928],94.9%
13,COc1cc(NC(=O)Nc2ccc3ccc(Cl)nc3n2)cc(OC)c1OC [CBK115933],82.9%
14,CC(C)Nc1nc2ccccc2nc1Sc1cccc(C(=O)O)c1 [CBK115955T],104%
15,COc1ccc(C2N(CCC(=O)O)CCOC23CCN(C(=O)c2ccc4ccccc4c2)CC3)cc1 (stereo not drawn) [CBK115960],102%
16,O=c1[nH]c(SCc2c(Cl)cccc2Cl)nc2ccnn12 [CBK116145],92.8%
17,O=S(=O)(c1cccc(C(F)(F)F)c1)n1ccc2c(CN3CCC[C@@H]3CO)cccc21 [CBK116167T],96.8%
18,O=S(=O)(c1cccc(C(F)(F)F)c1)n1ccc2c(CN3CCCC3)cccc21 [CBK116168T],111%
19,Cc1[nH]c(=O)[nH]c(=O)c1C(=O)Nc1ccccc1 [CBK116181],96.4%
20,O=S(=O)(c1cccs1)n1ccc2c(CN3CCCC3)cccc21 [CBK116195T],89.3%
21,CCCN1CCN(Cc2cccc3c2ccn3S(=O)(=O)c2cccs2)CC1 [CBK116196T],92%
22,COc1ccc2[nH]cc(CCNC(=O)CCCN(C)C)c2c1 [CBK116202],96.4%
23,COc1ccc2[nH]cc(CCNC(=O)c3ccco3)c2c1 [CBK116204],96.5%
24,COc1ccc2[nH]cc(CCNC(=O)Cc3ccsc3)c2c1 [CBK116205],91.3%

row,Compound,"viability at 28.5 h, 10 µM"
1,COc1ccc2[nH]cc(CCNC(=O)C3CC(=O)c4ccccc43)c2c1 (stereo not drawn) [CBK116221],97.3%
2,COc1ccc2[nH]cc(CCNC(=O)COc3ccc(O)cc3)c2c1 [CBK116227],82%
3,COCCN1CCOC2(CCN(C(=O)c3ccc4ccccc4c3)CC2)C1c1ccccc1O (stereo not drawn) [CBK116232],107%
4,Cc1cc(Br)ccc1-n1sc2ccccc2c1=O [CBK116239],87%
5,Cc1cc(NC(=O)c2ccco2)c2ccccc2n1 [CBK116258],106%
6,Cc1cc(NC(=O)c2cccc(C(F)(F)F)c2)c2ccccc2n1 [CBK116263],90%
7,CC(=O)N[C@@H](CC(C)C)C(=O)Nc1cc(C)nc2ccccc12 [CBK116265],94.3%
8,Cc1cc(NC(=O)Cc2ccc(Cl)c(Cl)c2)c2ccccc2n1 [CBK116266],99.3%
9,Cc1cc(NC(=O)c2cccc(C#N)c2)c2ccccc2n1 [CBK116267],101%
10,Cc1cc(NC(=O)c2ccc3[nH]ccc3c2)c2ccccc2n1 [CBK116270],104%
11,Cc1cc(NC(=O)c2cscn2)c2ccccc2n1 [CBK116275],85.6%
12,CCOc1ccccc1NC(=O)NC1CC2CCC(C1)N2Cc1ccccc1 (stereo not drawn) [CBK116294],86.2%
13,NC(=O)CN1CC2(CCN(C(=O)OCc3ccccc3)CC2)c2ccccc21 [CBK116309],94.4%
14,CC1(OCCN2CCOCC2)SC(NC2CC3CCC2C3)=NC1=O (stereo not drawn) [CBK116313],83.8%
15,NC(=O)CN1CC2(CCNCC2)c2ccccc21 [CBK116314],117%
16,O=C1CCC(C(=O)O)(c2ccccc2)N1c1ccccc1 (stereo not drawn) [CBK116358],94.8%
17,Cc1ccccc1NC(=O)c1ccccc1Cl [CBK116485],104%
18,Cc1ccnc(-n2sc3ccccc3c2=O)n1 [CBK116499],97.1%
19,COC(=O)c1ccc(CSc2nnc(-n3sc4ccccc4c3=O)s2)cc1 [CBK116502],90.6%
20,O=C(O)c1ccccc1NS(=O)(=O)c1cccc(-n2sc3ccccc3c2=O)c1 [CBK116503],94.7%
21,CN(C)CC(=O)NCc1ccc(-c2nc(-c3ccc(C#N)cc3)cnc2N)cc1 [CBK116506],92%

# Same assay, conditions: human, hela cells, % viability, bulk resorufin, single well
row,Compound,"viability at 28.5 h, 10 µM"
1,COc1ccc(CC(=O)Nc2cccc(-c3ccc4c(c3)COC3(CCNCC3)O4)c2)cc1F [CBK115913],86.5%
2,COc1cc(-c2ccc3c(c2)COC2(CCN(C(=O)OC(C)(C)C)CC2)O3)ccc1O [CBK116310],116%
3,N#Cc1cccc(-c2ccc3c(c2)COC2(CCN(C(=O)Cc4c[nH]c5ccccc45)CC2)O3)c1 [CBK116346],99.1%
